Measurements taken from patent US20250339409A1, “USES OF PAN BET INHIBITORS” (VYNE THERAPEUTICS INC., priority 2021, published 2025).

Test system: imiquimod-induced psoriasis
Test: Imiquimod-induced psoriasis (Th17 inflammation) model in mice, topical treatment once daily D7-D13: PASI, modified PASI, body weight, use of enrichment, TEWL
Type: in vivo
Parameters: key to Mean score use enrichment: 0 = no use of dental rolls to 4 = use of all 4; key to PASI Mean score values: sum of erythema, induration, peeling scores, each 0-3 (0 = none)
Experimental: Thirty-six (36) female Balb/c mice are weighed and randomly divided into 9 groups (n=4) according to body weight on D1. For mice of native group 1 and tolerance groups 8 and 9, no induction of psoriasis is performed between D1 and D13. Psoriasis is induced in groups 2 to 7 by once daily topical application for 13 days (from day 1 to day 13) of 65 mg of Aldara™ cream (5.0% imiquimod) onto the shaved and epilated back of mice. Before the first treatment, a second randomization of mice of the 6 imiquimod-induced psoriasis groups is performed according to the severity of psoriasis (PASI), and also the body weight of mice. Starting on day 7 and until day 13, 100 mg of test formulations […] and 65 mg of vehicle (groups 1 and […]) are topically administered once daily for 7 consecutive days onto the shaved back skin of mice. Several measurements are taken during treatment period from day 7 to day 14: psoriasis index (PASI), body weight, use of enrichment and mortality. At the end of treatment period, TEWL is assessed, and blood and skin samples are collected. Histological analysis of skin samples is used for microscopic scoring of psoriasis and the determination of the thickness of parakeratosis and epidermis and blood analysis is used for assessing the level of proinflammatory biomarkers (cytokines assays). The effect of treatment of psoriasis induced mice with BETi formulations at the four dose levels are compared with Dermoval® cream containing 0.05% clobetasol propionate (reference) and vehicle (positive control) and also with healthy mice treated with vehicle (negative control).
PASI scoring takes into account the following 3 parameters: the presence of erythema on the skin, induration of the skin (thickening) and peeling of the skin at the area of the induction of psoriasis.
The presence of erythema on the skin at the area of induction of psoriasis with the following scoring grid: • 0=no or no more erythema on the skin, • 1=weak erythema on the skin, • 2=moderate erythema on the skin, • 3=important erythema on the skin.
The presence of induration of the skin at the area of induction of psoriasis with the following scoring grid: • 0=no or no more induration of the skin, • 1=weak induration of the skin, • 2=moderate induration of the skin, • 3=important induration of the skin.
The presence of peeling of the skin at the area of induction of psoriasis with the following scoring grid: • 0=no or no more dryness/peeling of the skin, • 1=weak dryness/peeling of the skin, • 2=moderate dryness/peeling of the skin, • 3=important dryness/peeling of the skin.
The sum of the mean scores of these 3 parameters result in the mean PASI score.
One of the issues with a steroid is that it causes skin thinning and continues to have an effect on no longer inflamed skin and the model set up and measurements above are not designed to reflect this negative effect. Therefore, a modified PASI (mPASI) is calculated in the same the manner as mean PASI score but excludes the scoring for induration (thickening of the skin).
Mice are weighed three times during the week of D1 to D7, and then daily during the week of D7 to D13, as well as on the day D14 when they are sacrificed. It should be noted that a characteristic body weight loss of mice is observed after the start of the induction of psoriasis, mainly during the first days following it. The body weight loss can reach between 10 to 15%.
For the duration of the experiment, dental rolls are used as enrichment and placed in each cage and replaced twice. Between D1 and D7, the number of dental rolls used by animals are determined twice in the morning, and are determined daily during D7 to D14, at the time of PASI or the tolerance assessment. The use of dental rolls is scored from 0=no use of dental rolls to 4=use of the 4 dental rolls. In the case where only half of a dental roll is used, a score of 0.5 is assigned. […]

Cn1cc(-c2cccc(O)c2Oc2ccccc2)c2cc[nH]c2c1=O [BETi1] was tested, and the “Change in Modified PASI Mean score values” (from here on “Change”) (Table 1C, imiquimod-induced mice, treatment day 0, listed as BETi1 0.001%) was 4.25, the “Change” value (Table 1C, imiquimod-induced mice, treatment day 0, listed as BETi1 0.01%) was 4.375 and the “Change” value (Table 1C, imiquimod-induced mice, treatment day 0, listed as BETi1 0.1%) was 4.375. For the same compound, the “Change” value (Table 1C, imiquimod-induced mice, treatment day 1, listed as BETi1 0.001%) was 5.375, the “Change” value (Table 1C, imiquimod-induced mice, treatment day 1, listed as BETi1 0.01%) was 4 and the “Change” value (Table 1C, imiquimod-induced mice, treatment day 1, listed as BETi1 0.1%) was 4.375. The “Change” value (Table 1C, imiquimod-induced mice, treatment day 2, listed as BETi1 0.001%) was 4.75, the “Change” value (Table 1C, imiquimod-induced mice, treatment day 2, listed as BETi1 0.01%) was 2.875 and the “Change” value (Table 1C, imiquimod-induced mice, treatment day 2, listed as BETi1 0.1%) was 3.125. The “Change” value (Table 1C, imiquimod-induced mice, treatment day 3, listed as BETi1 0.001%) was 4.25, the “Change” value (Table 1C, imiquimod-induced mice, treatment day 3, listed as BETi1 0.01%) was 2.5 and the “Change” value (Table 1C, imiquimod-induced mice, treatment day 3, listed as BETi1 0.1%) was 2. The “Change” value (Table 1C, imiquimod-induced mice, treatment day 4, listed as BETi1 0.001%) was 4, the “Change” value (Table 1C, imiquimod-induced mice, treatment day 4, listed as BETi1 0.01%) was 2.125 and the “Change” value (Table 1C, imiquimod-induced mice, treatment day 4, listed as BETi1 0.1%) was 0.75. The “Change” value (Table 1C, imiquimod-induced mice, treatment day 5, listed as BETi1 0.001%) was 3.375, the “Change” value (Table 1C, imiquimod-induced mice, treatment day 5, listed as BETi1 0.01%) was 1 and the “Change” value (Table 1C, imiquimod-induced mice, treatment day 5, listed as BETi1 0.1%) was 0.375. The “Change” value (Table 1C, imiquimod-induced mice, treatment day 6, listed as BETi1 0.001%) was 3, the “Change” value (Table 1C, imiquimod-induced mice, treatment day 6, listed as BETi1 0.01%) was 1.25 and the “Change” value (Table 1C, imiquimod-induced mice, treatment day 6, listed as BETi1 0.1%) was 0.25. For the same compound, the “Change” value (Table 1C, imiquimod-induced mice, treatment day 7, listed as BETi1 0.001%) was 3, the “Change” value (Table 1C, imiquimod-induced mice, treatment day 7, listed as BETi1 0.01%) was 1 and the “Change” value (Table 1C, imiquimod-induced mice, treatment day 7, listed as BETi1 0.1%) was 0.25. The “Change” value (Table 1D, relative to day 0 = 100, treatment day 0) was 100, the “Change” value (Table 1D, relative to day 0 = 100, treatment day 1, listed as BETi1 0.001%) was 126.47 and the “Change” value (Table 1D, relative to day 0 = 100, treatment day 1, listed as BETi1 0.01%) was 91.43. For the same compound, the “Change” value (Table 1D, relative to day 0 = 100, treatment day 1, listed as BETi1 0.1%) was 100, the “Change” value (Table 1D, relative to day 0 = 100, treatment day 2, listed as BETi1 0.001%) was 111.76 and the “Change” value (Table 1D, relative to day 0 = 100, treatment day 2, listed as BETi1 0.01%) was 65.71. For the same compound, the “Change” value (Table 1D, relative to day 0 = 100, treatment day 2, listed as BETi1 0.1%) was 71.43, the “Change” value (Table 1D, relative to day 0 = 100, treatment day 3, listed as BETi1 0.001%) was 100 and the “Change” value (Table 1D, relative to day 0 = 100, treatment day 3, listed as BETi1 0.01%) was 57.14. The “Change” value (Table 1D, relative to day 0 = 100, treatment day 3, listed as BETi1 0.1%) was 45.72, the “Change” value (Table 1D, relative to day 0 = 100, treatment day 4, listed as BETi1 0.001%) was 94.12 and the “Change” value (Table 1D, relative to day 0 = 100, treatment day 4, listed as BETi1 0.01%) was 48.57. For the same compound, the “Change” value (Table 1D, relative to day 0 = 100, treatment day 4, listed as BETi1 0.1%) was 17.142, the “Change” value (Table 1D, relative to day 0 = 100, treatment day 5, listed as BETi1 0.001%) was 79.41 and the “Change” value (Table 1D, relative to day 0 = 100, treatment day 5, listed as BETi1 0.01%) was 22.86. For the same compound, the “Change” value (Table 1D, relative to day 0 = 100, treatment day 5, listed as BETi1 0.1%) was 8.57, the “Change” value (Table 1D, relative to day 0 = 100, treatment day 6, listed as BETi1 0.001%) was 70.59 and the “Change” value (Table 1D, relative to day 0 = 100, treatment day 6, listed as BETi1 0.01%) was 28.57. For the same compound, the “Change” value (Table 1D, relative to day 0 = 100, treatment day 6, listed as BETi1 0.1%) was 5.71, the “Change” value (Table 1D, relative to day 0 = 100, treatment day 7, listed as BETi1 0.001%) was 70.59 and the “Change” value (Table 1D, relative to day 0 = 100, treatment day 7, listed as BETi1 0.01%) was 22.86. For the same compound, the “Change” value (Table 1D, relative to day 0 = 100, treatment day 7, listed as BETi1 0.1%) was 5.71, the “Mean score use enrichment” value (imiquimod-induced mice, Before D 1, listed as BETi 0.001%) was 4.00 and the “Mean score use enrichment” value (imiquimod-induced mice, Before D 1, listed as BETi 0.01%) was 4.00. For the same compound, the “Mean score use enrichment” value (imiquimod-induced mice, Before D 1, listed as BETi 0.1%) was 4.00, the “Mean score use enrichment” value (imiquimod-induced mice, Before D 1, listed as BETi 1.0%) was 3.75 and the “Modified PASI Mean score values” (imiquimod-induced mice, D 1) was 0.00. For the same compound, the “PASI Mean score values” (imiquimod-induced mice, D 1) was 0.00, the “Mean score use enrichment” value (imiquimod-induced mice, D 1-D 8, listed as BETi 0.001%) was 1.79 and the “Mean score use enrichment” value (imiquimod-induced mice, D 1-D 8, listed as BETi 0.01%) was 1.61. For the same compound, the “Mean score use enrichment” value (imiquimod-induced mice, D 1-D 8, listed as BETi 0.1%) was 1.54, the “Mean score use enrichment” value (imiquimod-induced mice, D 1-D 8, listed as BETi 1.0%) was 2.56 and the Mean body weights (imiquimod-induced mice, D 1, listed as BETi1 1.0%) was 18.11.
